Experimental data reported in patent publication US20040009568A1, “Catalytic domains of the human hepatocyte growth factor receptor tyrosine kinase, and materials and methods for identification of inhibitors thereof” (priority 2001, published 2004).

Tests used:
Assay type in all cases: biochemical
pHGFR = biological target: T1, pHGFR (Homo sapiens, UniProt P08581); test: Radioactive glass fiber filterplate assay (32P transfer to dephosphorylated α-casein)
T1 construct: The cDNA corresponding to residues 1051-1349 of the HGFR kinase catalytic domain (HGFRkd) was cloned into a pFastBac plasmid; added N-terminal methionine (start codon of the NcoI site) (N); made in house; host or cells: Sf9 insect cells, recombinant baculovirus; then autophosphorylated in vitro with MgATP
T1 sequence (P08581 1051-1349): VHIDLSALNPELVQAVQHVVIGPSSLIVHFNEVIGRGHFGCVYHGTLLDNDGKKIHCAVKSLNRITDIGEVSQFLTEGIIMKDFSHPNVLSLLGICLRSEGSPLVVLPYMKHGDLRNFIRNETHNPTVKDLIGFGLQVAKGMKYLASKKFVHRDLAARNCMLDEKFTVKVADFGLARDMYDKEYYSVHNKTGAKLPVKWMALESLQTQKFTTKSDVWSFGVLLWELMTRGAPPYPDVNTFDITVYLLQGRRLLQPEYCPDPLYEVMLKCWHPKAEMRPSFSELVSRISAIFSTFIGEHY
Procedure: (§1) The kinetic consequences of the autophosphorylation were investigated. HGFR and pHGFR activities were evaluated in two distinct and complementing assay formats. […] A coupled, enzymatic assay format (CE format) was used to measure ADP production. HGFR-catalyzed production of ADP from ATP that accompanied phosphate transfer to the random copolymer poly(Glu4Tyr) was coupled to the oxidation of NADH through the sequential activities of pyruvate kinase (PK) and lactate dehydrogenase (LDH). NADH conversion to NAD^+ was monitored spectrophotometrically by the decrease in absorbance at 340 nm (ε=6.22 cm^−1 mM^−1). A second assay format was used to measure the production of [^32P]-labeled phospho-protein (dephosphorylated α-casein). Dephosphorylated α-casein is the substrate for HGFR […] in a glass fiber filterplate assay format. […]
(§2) Inhibition of HGFR and pHGFR were monitored in two distinct assay formats to insure valid results. The coupled, enzymatic format (CE) was a continuous assay that measured ADP production through the sequential action of two standard coupling enzymes (pyruvate kinase and lactate dehydrogenase). The radioactive assay format was a discontinuous assay that measured phospho-protein production directly. […]

unphosphorylated HGFR = biological target: T2, unphosphorylated HGFR (Homo sapiens, UniProt P08581); test: Coupled enzymatic (PK/LDH) kinase assay, unphosphorylated HGFR
T2 construct: The cDNA corresponding to residues 1051-1349 of the HGFR kinase catalytic domain (HGFRkd) was cloned into a pFastBac plasmid; added N-terminal methionine (start codon of the NcoI site) (N); made in house; host or cells: Sf9 insect cells, recombinant baculovirus (pFastBac-NcoI)
T2 sequence (P08581 1051-1349): as above
Procedure: (§3) A coupled enzymatic assay format was used to measure both HGFR and phospho-HGFR(PHGFR) activities. The kinase-catalyzed production of ADP from ATP that accompanies phosphate transfer to the random copolymer poly(Glu4Tyr) or peptide substrate was coupled to the oxidation of NADH through the activities of pyruvate kinase (PK) and lactate dehydrogenase (LDH). NADH conversion to NAD^+ was monitored by the decrease in absorbance at 340 nm (ε=6.22 cm^−1 mM^−1) using a Beckman DU650 spectrophotometer. A typical reaction solution contained 1 mM phosphoenolpyruvate, 0.24 mM NADH, 40 mM MgCl2, 5 mM DTT, poly(Glu4Tyr), ATP, 15 units/mL PK, 15 units/mL LDH in 100 mM HEPES, pH 7.5. ATP was varied from 0.5 to 2000 μM and poly(Glu4Tyr) was varied from 0.5 to 20 mg/mL. In addition, Met2 peptide (0-4 mM) could be used instead of poly(Glu4Tyr). Assays were initiated with the addition of 12 nM phosphorylated HGFR or 125 nM unphosphorylated HGFR. Inhibition studies were performed as described above with following exceptions: 0.075 mM ATP (PHGFR) and 0.375 mM ATP (HGFR). Data was fit to the equation for competitive inhibition by the method of nonlinear least squares (KaleidaGraph).
The kinetic consequences of the autophosphorylation were investigated. HGFR and pHGFR activities were evaluated in two distinct and complementing assay formats. […] NADH conversion to NAD^+ was monitored spectrophotometrically by the decrease in absorbance at 340 nm (ε=6.22 cm^−1 mM^−1). […]
as §2
(§4) The coupled enzymatic analysis of HGFR processing of ATP and poly(Glu4Tyr) were measured at 37° C. Variable substrate concentration was measured at a fixed saturating concentration of the other substrate.

[1] = biological target: T3, phosphorylated HGFR (pHGFR) (Homo sapiens, UniProt P08581); test: Coupled enzymatic (PK/LDH) kinase assay, phospho-HGFR
T3 construct: The cDNA corresponding to residues 1051-1349 of the HGFR kinase catalytic domain (HGFRkd) was cloned into a pFastBac plasmid; added N-terminal methionine (start codon of the NcoI site) (N); made in house; host or cells: Sf9 insect cells, recombinant baculovirus; then autophosphorylated in vitro with MgATP
T3 sequence (P08581 1051-1349): as above
Procedure: as §3, §1, §2, §4

[2] = coupled enzymatic analysis, 37° C., other substrate fixed saturating

Ki (pHGFR; radioactive filterplate format, 27.5 nM pHGFR, 0.075 mM ATP, RT, 30 min, read-out: inhibition (pHGFR/radioactive format))	Ki (unphosphorylated HGFR; coupled enzymatic format, 0.375 mM ATP, data fit to equation for competitive inhibition, read-out: inhibition (HGFR/CE format))	mechanism of pHGFR inhibition (double reciprocal analysis) ([1]; CE assay, ATP 25-3200 μM, Compound 1 0-1200 nM, pHGFR 25 nM, Met2 peptide 0.5 mM)	Ki ([1]; coupled enzymatic format, 0.075 mM ATP, data fit to equation for competitive inhibition, read-out: inhibition (pHGFR/CE format))	Km (pHGFR; radioactive filtermate format, dephosphorylated α-casein phosphoacceptor, read-out: Km for ATP (radioactive filtermate format))	Km (unphosphorylated HGFR; [2])	kcat, Unphosphorylated HGFR (unphosphorylated HGFR; [2])	kcat, Phospho-HGFR [1, 2]	Km ([1]; coupled enzymatic analysis, 37° C., other substrate fixed saturating, read-out: Km, Phospho-HGFR)	Structure (SMILES)
128 ± 17 nM	500 ± 30 nM	ATP-competitive inhibitor	381 ± 19 nM	–	–	–	–	–	O=C1Nc2ccc3ncsc3c2/C1=C/Nc1ccc(S(=O)(=O)NCCOCCO)cc1 [Compound 1, 4-[[(Z)-(6,7-dihydro-7-oxo-8H-pyrrolo[2,3-g]benzothiazol-8-ylidene)methyl]amino]-N-[2-(2-hydroxyethoxy)ethyl]-(9CI)]
–	–	–	–	78.6 ± 12.1 µM	373 ± 61 µM	1.02 ± 0.013 s⁻¹	31.3 ± 2.1 s⁻¹	73.7 ± 2.8 µM	Nc1ncnc2c1ncn2[C@@H]1O[C@H](COP(=O)(O)OP(=O)([O-])OP(=O)([O-])O)[C@@H](O)[C@H]1O.[Mg+2] [MgATP, ATP]
